Reference: publication PMC5218480 (PLoS ONE, 2017)

System: MV-4-11 cells
Assay: Gene expression microarray analysis (Affymetrix PrimeView) and GSEA
Assay type: cell-based, human
Set-up: RFU PODN (11730768_x_at) / Fold change /veh PODN (11730768_x_at) / RFU LINC00158 (11744669_a_at) / Fold change /veh LINC00158 (11744669_a_at) / RFU DUSP10 (11751237_a_at) / Fold change /veh DUSP10 (11751237_a_at) / RFU ID3 (11757404_x_at) / Fold change /veh ID3 (11757404_x_at) / RFU PLEKHG5 (11737974_s_at) / Fold change /veh PLEKHG5 (11737974_s_at) / RFU LRRC4B (11730491_at) / Fold change /veh LRRC4B (11730491_at) / RFU GIMAP4 (11747438_a_at) / Fold change /veh GIMAP4 (11747438_a_at) / RFU KRT8 (11758183_x_at) / Fold change /veh KRT8 (11758183_x_at) / RFU CNN1 (11734310_a_at) / Fold change /veh CNN1 (11734310_a_at) / RFU VPS37D (11726825_at) / Fold change /veh VPS37D (11726825_at) / RFU C10orf10 (11716522_x_at) / Fold change /veh C10orf10 (11716522_x_at) / RFU KIR2DL2 /// KIR2DL4 /// KIR2DL5A /// KIR2DL5B /// KIR2DS1 /// KIR2DS2 /// KIR2DS3 /// KIR2DS4 /// KIR3DL3 /// KIR3DL3 /// KIR3DS1 (11738374_at) / Fold change /veh KIR2DL2 /// KIR2DL4 /// KIR2DL5A /// KIR2DL5B /// KIR2DS1 /// KIR2DS2 /// KIR2DS3 /// KIR2DS4 /// KIR3DL3 /// KIR3DL3 /// KIR3DS1 (11738374_at) / RFU C1QL1 (11718748_at) / Fold change /veh C1QL1 (11718748_at) / RFU TMPRSS4 (11747572_a_at) / Fold change /veh TMPRSS4 (11747572_a_at) / RFU HAMP (11756126_x_at) / Fold change /veh HAMP (11756126_x_at) / RFU RNFT2 (11725882_a_at) / Fold change /veh RNFT2 (11725882_a_at) / RFU NR4A2 (11747474_a_at) / Fold change /veh NR4A2 (11747474_a_at) / RFU ABCC12 (11746883_a_at) / Fold change /veh ABCC12 (11746883_a_at) / RFU TMEM136 (11760407_x_at) / Fold change /veh TMEM136 (11760407_x_at) / RFU CLDN22 /// WWC2 (11732394_at) / Fold change /veh CLDN22 /// WWC2 (11732394_at) / RFU HLA-DPB1 (11760878_x_at) / Fold change /veh HLA-DPB1 (11760878_x_at) / RFU SPINT1 (11716480_a_at) / Fold change /veh SPINT1 (11716480_a_at) / RFU GAP43 (11754022_s_at) / Fold change /veh GAP43 (11754022_s_at) / RFU A4GNT (11735810_at) / Fold change /veh A4GNT (11735810_at) / RFU PRB3 (11715151_x_at) / Fold change /veh PRB3 (11715151_x_at) / RFU TUBB4B (11761932_at) / Fold change /veh TUBB4B (11761932_at) / RFU CAPN14 (11732068_a_at) / Fold change /veh CAPN14 (11732068_a_at) / RFU TMCC2 (11721928_a_at) / Fold change /veh TMCC2 (11721928_a_at) / RFU IRGQ (11745062_a_at) / Fold change /veh IRGQ (11745062_a_at) / RFU FAM174B (11720279_a_at) / Fold change /veh FAM174B (11720279_a_at) / RFU TMPRSS4 (11748680_a_at) / Fold change /veh TMPRSS4 (11748680_a_at) / RFU FAM212B (11763350_a_at) / Fold change /veh FAM212B (11763350_a_at) / RFU PLEKHG5 (11743358_a_at) / Fold change /veh PLEKHG5 (11743358_a_at) / RFU ZSCAN30 (11745921_a_at) / Fold change /veh ZSCAN30 (11745921_a_at) / RFU CMKLR1 (11741424_a_at) / Fold change /veh CMKLR1 (11741424_a_at) / RFU LOC101060620 /// MAPK8IP1 (11723275_at) / Fold change /veh LOC101060620 /// MAPK8IP1 (11723275_at) / RFU SPTSSB (11747773_x_at) / Fold change /veh SPTSSB (11747773_x_at) / RFU PRSS12 (11739890_at) / Fold change /veh PRSS12 (11739890_at) / RFU BIN1 (11741810_x_at) / Fold change /veh BIN1 (11741810_x_at) / RFU WNT11 (11732464_a_at) / Fold change /veh WNT11 (11732464_a_at) / RFU C10orf10 (11716521_a_at) / Fold change /veh C10orf10 (11716521_a_at) / RFU C5orf56 (11738089_at) / Fold change /veh C5orf56 (11738089_at) / RFU CYB561 (11721691_x_at) / Fold change /veh CYB561 (11721691_x_at) / RFU ANKRD19P (11752326_a_at) / Fold change /veh ANKRD19P (11752326_a_at) / RFU OR2T12 /// OR2T33 /// OR2T8 (11738714_s_at) / Fold change /veh OR2T12 /// OR2T33 /// OR2T8 (11738714_s_at) / RFU VCAN (11748164_a_at) / Fold change /veh VCAN (11748164_a_at) / RFU JSRP1 (11732532_at) / Fold change /veh JSRP1 (11732532_at) / RFU KRTAP10-11 (11738290_x_at) / Fold change /veh KRTAP10-11 (11738290_x_at) / RFU MYO3A (11730013_a_at) / Fold change /veh MYO3A (11730013_a_at) / RFU EBF3 (11725865_a_at) / Fold change /veh EBF3 (11725865_a_at) / RFU CAMK2N1 (11719241_x_at) / Fold change /veh CAMK2N1 (11719241_x_at) / RFU C5orf56 (11738088_a_at) / Fold change /veh C5orf56 (11738088_a_at) / RFU OLFML3 (11715873_a_at) / Fold change /veh OLFML3 (11715873_a_at) / RFU LOC100653217 /// NTM (11731650_a_at) / Fold change /veh LOC100653217 /// NTM (11731650_a_at) / RFU MAPK11 (11762145_a_at) / Fold change /veh MAPK11 (11762145_a_at) / RFU FIZ1 (11724087_x_at) / Fold change /veh FIZ1 (11724087_x_at) / RFU OASL (11726364_x_at) / Fold change /veh OASL (11726364_x_at) / RFU SOX15 (11748057_x_at) / Fold change /veh SOX15 (11748057_x_at) / RFU CD79A (11719716_a_at) / Fold change /veh CD79A (11719716_a_at) / RFU HIST1H1D (11736915_at) / Fold change /veh HIST1H1D (11736915_at) / RFU CASKIN2 (11723855_a_at) / Fold change /veh CASKIN2 (11723855_a_at) / RFU LOC730098 (11760151_x_at) / Fold change /veh LOC730098 (11760151_x_at) / RFU OR4N2 (11742367_at) / Fold change /veh OR4N2 (11742367_at) / RFU PRRT2 (11749266_a_at) / Fold change /veh PRRT2 (11749266_a_at) / RFU SNX32 (11753110_a_at) / Fold change /veh SNX32 (11753110_a_at) / RFU CDHR5 (11726645_a_at) / Fold change /veh CDHR5 (11726645_a_at) / RFU RCAN1 (11760418_a_at) / Fold change /veh RCAN1 (11760418_a_at) / RFU FAM167A (11723789_a_at) / Fold change /veh FAM167A (11723789_a_at) / RFU FAM26E (11764081_at) / Fold change /veh FAM26E (11764081_at) / RFU ISYNA1 (11749810_s_at) / Fold change /veh ISYNA1 (11749810_s_at) / RFU ACY1 (11761880_at) / Fold change /veh ACY1 (11761880_at) / RFU 11764098_at / Fold change /veh 11764098_at / RFU SAMD14 (11745864_x_at) / Fold change /veh SAMD14 (11745864_x_at) / RFU NPB (11741838_a_at) / Fold change /veh NPB (11741838_a_at) / RFU TMPRSS6 (11731388_a_at) / Fold change /veh TMPRSS6 (11731388_a_at) / RFU KRTAP10-2 (11738614_at) / Fold change /veh KRTAP10-2 (11738614_at) / RFU ARHGAP8 /// PRR5-ARHGAP8 (11727945_x_at) / Fold change /veh ARHGAP8 /// PRR5-ARHGAP8 (11727945_x_at) / RFU KRTAP5-7 /// NADSYN1 (11734609_at) / Fold change /veh KRTAP5-7 /// NADSYN1 (11734609_at) / RFU RASL12 (11751679_a_at) / Fold change /veh RASL12 (11751679_a_at) / RFU CDKN2B (11736163_a_at) / Fold change /veh CDKN2B (11736163_a_at) / RFU PRF1 (11729649_at) / Fold change /veh PRF1 (11729649_at) / RFU, ZNF638 /// ZNF638-IT1 / Fold change vs veh, ZNF638 /// ZNF638-IT1 / RFU, PANK3 / Fold change vs veh, PANK3 / RFU, SH3YL1 / Fold change vs veh, SH3YL1 / RFU, ZEB2 / Fold change vs veh, ZEB2 / RFU, NRIP1 / Fold change vs veh, NRIP1 / RFU, PTTG1IP / Fold change vs veh, PTTG1IP / RFU, CAPN2 / Fold change vs veh, CAPN2 / RFU, MED14 / Fold change vs veh, MED14 / RFU, SNORA58 / Fold change vs veh, SNORA58 / RFU, C1orf63 / Fold change vs veh, C1orf63 / RFU, LRRFIP1 / Fold change vs veh, LRRFIP1 / RFU, NDUFAF7 / Fold change vs veh, NDUFAF7 / RFU, SLC12A2 / Fold change vs veh, SLC12A2 / RFU, IBTK / Fold change vs veh, IBTK / RFU, ESF1 / Fold change vs veh, ESF1 / Fold change vs veh, TMEM50B / RFU, TAOK1 / Fold change vs veh, TAOK1 / RFU, ACBD3 / Fold change vs veh, ACBD3 / RFU, TMA16 / Fold change vs veh, TMA16 / RFU, RWDD3 / Fold change vs veh, RWDD3 / RFU, BCAT1 / Fold change vs veh, BCAT1 / RFU, EDEM3 / Fold change vs veh, EDEM3 / RFU, TMEM33 / Fold change vs veh, TMEM33 / RFU, WDR75 / Fold change vs veh, WDR75 / RFU, AHCTF1 / Fold change vs veh, AHCTF1 / RFU, TFRC / Fold change vs veh, TFRC / RFU, ZDHHC17 / Fold change vs veh, ZDHHC17 / RFU, NOM1 / Fold change vs veh, NOM1 / RFU, ARL8B / Fold change vs veh, ARL8B / RFU, ZBTB11 / Fold change vs veh, ZBTB11 / RFU, TAMM41 / Fold change vs veh, TAMM41 / RFU, KIAA1704 /// LOC100996395 / Fold change vs veh, KIAA1704 /// LOC100996395 / RFU, ING1 / Fold change vs veh, ING1 / RFU, TRMT61B / Fold change vs veh, TRMT61B / RFU, FUBP3 / Fold change vs veh, FUBP3 / RFU, TP53 / Fold change vs veh, TP53 / RFU, TNKS2 / Fold change vs veh, TNKS2 / RFU, ZFP14 / Fold change vs veh, ZFP14 / RFU, ACTR2 / Fold change vs veh, ACTR2 / RFU, PPP3R1 / Fold change vs veh, PPP3R1 / RFU, PIK3R1 / Fold change vs veh, PIK3R1 / RFU, HNRNPA1 / Fold change vs veh, HNRNPA1 / RFU, RNF170 / Fold change vs veh, RNF170 / RFU, ZNF28 / Fold change vs veh, ZNF28 / RFU, RNGTT / Fold change vs veh, RNGTT / RFU, OGT / Fold change vs veh, OGT / RFU, BRD1 / Fold change vs veh, BRD1 / RFU, MARS / Fold change vs veh, MARS / RFU, ZNF655 / Fold change vs veh, ZNF655 / RFU, FAHD1 / Fold change vs veh, FAHD1 / RFU, BDP1 / Fold change vs veh, BDP1 / RFU, LRRCC1 / Fold change vs veh, LRRCC1 / RFU, ARID1A / Fold change vs veh, ARID1A / RFU, ZNF146 / Fold change vs veh, ZNF146 / RFU, ZNF330 / Fold change vs veh, ZNF330 / RFU, GPN3 / Fold change vs veh, GPN3 / RFU, C9orf123 / Fold change vs veh, C9orf123 / RFU, N4BP2L2 / Fold change vs veh, N4BP2L2 / RFU, ARFIP1 / Fold change vs veh, ARFIP1 / RFU, FAM179B / Fold change vs veh, FAM179B / RFU, BCL10 / Fold change vs veh, BCL10 / RFU, UHRF1BP1L / Fold change vs veh, UHRF1BP1L / RFU, BET1 / Fold change vs veh, BET1 / RFU, CNOT2 / Fold change vs veh, CNOT2 / RFU, ZNF268 / Fold change vs veh, ZNF268 / Fold change vs veh, ZNF507 / RFU, DGCR2 / Fold change vs veh, DGCR2 / RFU, WDSUB1 / Fold change vs veh, WDSUB1 / Fold change vs veh, HSP90B1 /// MIR3652 / RFU, ADSS / Fold change vs veh, ADSS / RFU, GK / Fold change vs veh, GK / RFU, ZNF148 / Fold change vs veh, ZNF148 / RFU, TAF9 / Fold change vs veh, TAF9 / RFU, SLC1A5 / Fold change vs veh, SLC1A5 / RFU, SLMO2 / Fold change vs veh, SLMO2 / RFU, ABCC4 / Fold change vs veh, ABCC4 / RFU, LOC101060439 /// RAP1B / Fold change vs veh, LOC101060439 /// RAP1B / RFU, RFX7 / Fold change vs veh, RFX7 / RFU, GTPBP10 / Fold change vs veh, GTPBP10 / RFU, CNEP1R1 / Fold change vs veh, CNEP1R1 / RFU, BIVM-ERCC5 /// ERCC5 / Fold change vs veh, BIVM-ERCC5 /// ERCC5 / RFU, ILF3 / Fold change vs veh, ILF3 / RFU 11762660_at / Fold change /veh 11762660_at / RFU VCAN (11757783_s_at) / Fold change /veh VCAN (11757783_s_at) / RFU DDX43 (11728927_at) / Fold change /veh DDX43 (11728927_at) / RFU KRT8 (11758188_x_at) / Fold change /veh KRT8 (11758188_x_at) / RFU NKD1 (11759106_at) / Fold change /veh NKD1 (11759106_at) / RFU SRD5A1 (11742802_a_at) / Fold change /veh SRD5A1 (11742802_a_at) / RFU TPSAB1 /// TPSB2 (11721975_s_at) / Fold change /veh TPSAB1 /// TPSB2 (11721975_s_at) / RFU GSTM3 (11746129_a_at) / Fold change /veh GSTM3 (11746129_a_at) / RFU IL23R (11737362_x_at) / Fold change /veh IL23R (11737362_x_at) / RFU TMEM51 (11727254_a_at) / Fold change /veh TMEM51 (11727254_a_at) / RFU PIWIL2 (11732686_x_at) / Fold change /veh PIWIL2 (11732686_x_at) / RFU ORM1 (11744905_x_at) / Fold change /veh ORM1 (11744905_x_at) / RFU CCDC152 (11743942_at) / Fold change /veh CCDC152 (11743942_at) / RFU ECM1 (11717891_a_at) / Fold change /veh ECM1 (11717891_a_at) / RFU IL23R (11748794_a_at) / Fold change /veh IL23R (11748794_a_at) / RFU TNFAIP8L3 (11732012_x_at) / Fold change /veh TNFAIP8L3 (11732012_x_at) / RFU MBOAT4 (11741988_at) / Fold change /veh MBOAT4 (11741988_at) / RFU 11764193_at / Fold change /veh 11764193_at / RFU TMEM53 (11763286_at) / Fold change /veh TMEM53 (11763286_at) / RFU MAGEB2 (11727129_at) / Fold change /veh MAGEB2 (11727129_at) / RFU TMEM200A (11744735_a_at) / Fold change /veh TMEM200A (11744735_a_at) / RFU CCDC152 (11751479_a_at) / Fold change /veh CCDC152 (11751479_a_at) / RFU FAM211A (11726209_a_at) / Fold change /veh FAM211A (11726209_a_at) / RFU RGS16 (11746705_a_at) / Fold change /veh RGS16 (11746705_a_at) / RFU VCAN (11755009_s_at) / Fold change /veh VCAN (11755009_s_at) / RFU RHOB (11743442_s_at) / Fold change /veh RHOB (11743442_s_at) / RFU RGS16 (11720943_a_at) / Fold change /veh RGS16 (11720943_a_at) / RFU RGS16 (11720944_at) / Fold change /veh RGS16 (11720944_at) / RFU, VPS4B / Fold change vs veh, VPS4B / RFU, CREB1 / Fold change vs veh, CREB1 / RFU, DNAJC13 / Fold change vs veh, DNAJC13 / RFU, GNAQ / Fold change vs veh, GNAQ / RFU, CDK5R1 / Fold change vs veh, CDK5R1 / RFU, ZRANB3 / Fold change vs veh, ZRANB3 / RFU, CUL4A / Fold change vs veh, CUL4A / RFU, CCNY / Fold change vs veh, CCNY / RFU, UFL1 / Fold change vs veh, UFL1 / RFU, COG3 / Fold change vs veh, COG3 / RFU, DIAPH2 / Fold change vs veh, DIAPH2 / RFU, SKA2 / Fold change vs veh, SKA2 / RFU, AFF3 / Fold change vs veh, AFF3 / RFU, LMF1 / Fold change vs veh, LMF1 / RFU, IPO11 / Fold change vs veh, IPO11 / RFU, DFFB / Fold change vs veh, DFFB / RFU, FOXP1 / Fold change vs veh, FOXP1 / RFU, CARD8 / Fold change vs veh, CARD8 / RFU, STRN3 / Fold change vs veh, STRN3 / RFU, ADK / Fold change vs veh, ADK / RFU, RASSF2 / Fold change vs veh, RASSF2 / RFU, WIPF1 / Fold change vs veh, WIPF1 / RFU, LARP1B / Fold change vs veh, LARP1B / RFU, RASA1 / Fold change vs veh, RASA1 / RFU, RB1 / Fold change vs veh, RB1 / RFU, PPFIA1 / Fold change vs veh, PPFIA1 / RFU, MAT2A / Fold change vs veh, MAT2A / RFU, CCT5 / Fold change vs veh, CCT5 / RFU, WDR92 / Fold change vs veh, WDR92 / RFU, CUX1 / Fold change vs veh, CUX1 / RFU, TTC7A / Fold change vs veh, TTC7A / RFU, TMEM135 / Fold change vs veh, TMEM135 / RFU, DEPTOR / Fold change vs veh, DEPTOR / RFU, CPM / Fold change vs veh, CPM / RFU, DNAJB6 / Fold change vs veh, DNAJB6 / RFU, CACNA2D3 / Fold change vs veh, CACNA2D3 / RFU, DTX4 / Fold change vs veh, DTX4 / RFU, TFCP2 / Fold change vs veh, TFCP2 / RFU, GMCL1 /// GMCL1P1 / Fold change vs veh, GMCL1 /// GMCL1P1 / RFU, AEBP2 / Fold change vs veh, AEBP2 / RFU, SNHG1 /// SNORD22 /// SNORD25 /// SNORD26 /// SNORD27 /// SNORD28 /// SNORD29 /// SNORD31 / Fold change vs veh, SNHG1 /// SNORD22 /// SNORD25 /// SNORD26 /// SNORD27 /// SNORD28 /// SNORD29 /// SNORD31 / Fold change (Aza/veh), C12orf56 (ProbeSet 11735607_a_at) / Fold change (ACY-1035/veh), C12orf56 (ProbeSet 11735607_a_at) / Fold change (Aza/veh), FGFR1OP (ProbeSet 11751329_s_at) / Fold change (ACY-1035/veh), FGFR1OP (ProbeSet 11751329_s_at) / Fold change (Aza/veh), VPS36 (ProbeSet 11739960_a_at) / Fold change (ACY-1035/veh), VPS36 (ProbeSet 11739960_a_at) / RFU SYPL1 (11715823_x_at) / Fold change /veh SYPL1 (11715823_x_at) / RFU IGFBP7 (11715501_s_at) / Fold change /veh IGFBP7 (11715501_s_at) / RFU REEP3 (11722064_at) / Fold change /veh REEP3 (11722064_at) / RFU IGLL1 (11728026_x_at) / Fold change /veh IGLL1 (11728026_x_at): dose or concentration left out as unconfirmed
Settings: MV-4-11 cells, 48 hours

Nc1ncn([C@@H]2O[C@H](CO)[C@@H](O)[C@H]2O)c(=O)n1 [azacitidine]
Fold change /veh KRT8 (11758183_x_at): 1.18
